Results taken from patent publication US9862717B2 (Merck Patent GmbH, priority 2014, dated 2018).

Target: T1, CDK8/CycC (Homo sapiens, UniProt P49336)
T1 construct: purchased Invitrogen PV4402
Assay: FRET based Lanthascreen binding competition assay for CDK8 inhibitory activity
Conditions: CDK8 co-expressed with CycC; class symbols; read-out: IC50
Text: Biochemical Assay for CDK8 Inhibitory Activity FRET based Lanthascreen binding competition assay: A dye-labeled ATP competitive probe served as a FRET acceptor upon binding to CDK8 labeled with a strepavidin -Eu-chelate (via a biotinylated anti His antibody). The result was a fluorescence signal at 647 nm. In case this probe was competed by an inhibitor, such a signal cannot be generated any more. The CDK8 used for this assay was a protein co-expressed with CycC. The assay procedure for an assay in a 1536 well plate was performed according to the following: 2 μL CDK8/biotin-anti-His Ab/SA-Eu mix in Assay buffer were pipetted into the wells of a micro plate. 1 μL compound in 20 mM Hepes buffer/5% DMSO was added. The plate was shaken for 30 sec and incubated for 20 min at RT. 2 μL Alexa647-probe in assay buffer were added. The plate was shaken for 30 sec again and incubated for 60 min at RT in the dark. Then the plate was read out on a Perkin Elmer Envision (mode LANCE/TRF, excitation 340 nm emission 650 nm). […] The readouts were fitted to IC50 curves using Genedata Condoseo.

T1 sequence (P49336 whole entry): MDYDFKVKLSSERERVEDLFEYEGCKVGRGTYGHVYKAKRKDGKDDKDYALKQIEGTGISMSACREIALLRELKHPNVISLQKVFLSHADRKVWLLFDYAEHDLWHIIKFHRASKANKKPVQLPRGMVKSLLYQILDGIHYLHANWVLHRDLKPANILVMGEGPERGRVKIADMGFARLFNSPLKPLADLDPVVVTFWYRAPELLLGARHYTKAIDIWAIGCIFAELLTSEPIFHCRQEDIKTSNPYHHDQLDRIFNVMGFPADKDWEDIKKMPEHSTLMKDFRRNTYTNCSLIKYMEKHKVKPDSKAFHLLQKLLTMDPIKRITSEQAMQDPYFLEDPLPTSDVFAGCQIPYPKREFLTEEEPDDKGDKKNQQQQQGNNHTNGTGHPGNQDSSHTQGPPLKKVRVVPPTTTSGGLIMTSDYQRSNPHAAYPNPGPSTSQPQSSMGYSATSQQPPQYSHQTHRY
T1 sequence (P24863 whole entry partner): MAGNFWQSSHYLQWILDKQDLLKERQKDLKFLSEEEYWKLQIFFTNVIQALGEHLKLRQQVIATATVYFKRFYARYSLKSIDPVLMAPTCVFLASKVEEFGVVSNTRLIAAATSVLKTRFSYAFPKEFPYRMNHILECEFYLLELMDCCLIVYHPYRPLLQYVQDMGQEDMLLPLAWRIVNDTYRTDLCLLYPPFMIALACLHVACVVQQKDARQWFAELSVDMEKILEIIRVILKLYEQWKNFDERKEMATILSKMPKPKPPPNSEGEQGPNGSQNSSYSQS

| SMILES | IC50 [µM] |
| --- | --- |
| CCCc1n[nH]c2ccc(C(=O)N3CCCC3c3ccc(Br)cc3)cc12 (racemic) [compound 4, [2-(4-Bromo-phenyl)-pyrrolidin-1-yl]-(3-propyl-1H-indazol-5-yl)-methanone] | < 0.01 |
| O=C(c1ccc2[nH]ncc2c1)N1CCCC1c1ccc(Br)cc1 (racemic) [compound 154] | 0.01 to 0.1 |
| O=C(c1cnc2[nH]nc(C(F)(F)F)c2c1)N1CCCC1c1ccc(Cl)cc1 (racemic) [compound 177, [2-(4-Chloro-phenyl)-pyrrolidin-1-yl]-(3-trifluoromethyl-1H-pyrazolo[3,4-b]pyridin-5-yl)-methanone] | 0.01 to 0.1 |
| CC(C)c1ccc(C2CCCN2C(=O)c2ccc3[nH]nc(N)c3c2)cc1 (racemic) [compound 191, (3-Amino-1H-indazol-5-yl)-[2-(4-isopropyl-phenyl)-pyrrolidin-1-yl]-methanone] | 0.01 to 0.1 |
| Cc1n[nH]c2ncc(C(=O)N3CCCC3c3ccc(C(C)C)cc3)cc12 (racemic) [compound 192, [2-(4-Isopropyl-phenyl)-pyrrolidin-1-yl]-(3-methyl-1H-pyrazolo[3,4-b]pyridin-5-yl)-methanone] | < 0.01 |
| Cc1n[nH]c2ncc(C(=O)N3CCC(O)(c4ccccc4)C3)cc12 (racemic) [compound 193, (3-Hydroxy-3-phenyl-pyrrolidin-1-yl)-(3-methyl-1H-pyrazolo[3,4-b]pyridin-5-yl)-methanone] | 1 to 10 |
| CC(=O)N[C@@H]1CN(C(=O)c2ccc3[nH]nc(N)c3c2)C[C@H]1c1ccc(Cl)cc1 (racemic) [compound 263, N-[(3S,4R)-1-(3-Amino-1H-indazole-5-carbonyl)-4-(4-chloro-phenyl)-pyrrolidin-3-yl]-acetamide (racemic)] | 0.01 to 0.1 |
| CC(=O)N[C@@H]1CN(C(=O)c2cnc3[nH]nc(C)c3c2)C[C@H]1c1ccc(Cl)cc1 (racemic) [compound 264, N-[(3S,4R)-4-(4-Chloro-phenyl)-1-(3-methyl-1H-pyrazolo[3,4-b]pyridine-5-carbonyl)-pyrrolidin-3-yl]-acetamide (racemic)] | 0.01 to 0.1 |
| Nc1n[nH]c2ccc(C(=O)N3CCCCC3Cc3ccccc3)cc12 (stereo in doubt) [compound 86, (3-Amino-1H-indazol-5-yl)-((S)-2-benzyl-piperidin-1-yl)-methanone] | 0.01 to 0.1 |
| Nc1n[nH]c2ccc(C(=O)N3CCCCC3Cc3ccccc3)cc12 (stereo in doubt) [compound 89, (3-Amino-1H-indazol-5-yl)-((R)-2-benzyl-piperidin-1-yl)-methanone] | 0.1 to 1 |
| Cc1n[nH]c2ncc(C(=O)N3CC[C@H](C)C3c3ccc(C(F)(F)F)cc3)cc12 (stereo in doubt) [compound 171, (3-Methyl-1H-pyrazolo[3,4-b]pyridin-5-yl)-[(2S,3S)-3-methyl-2-(4-trifluoromethyl-phenyl)-pyrrolidin-1-yl]-methanone] | 0.01 to 0.1 |
| O=C(c1cnc2[nH]nc(C(F)(F)F)c2c1)N1CCC[C@H]1c1ccc(Cl)cc1 (stereo in doubt) [compound 180, [(S)-2-(4-Chloro-phenyl)-pyrrolidin-1-yl]-(3-trifluoromethyl-1H-pyrazolo[3,4-b]pyridin-5-yl)-methanone] | < 0.01 |
| O=C(c1cnc2[nH]nc(C(F)(F)F)c2c1)N1CCC[C@@H]1c1ccc(Cl)cc1 (stereo in doubt) [compound 181, [(R)-2-(4-Chloro-phenyl)-pyrrolidin-1-yl]-(3-trifluoromethyl-1H-pyrazolo[3,4-b]pyridin-5-yl)-methanone] | 0.1 to 1 |
| Cc1n[nH]c2ncc(C(=O)N3CCC(O)(c4ccccc4)C3)cc12 (stereo in doubt) [compound 199, ((R)-3-Hydroxy-3-phenyl-pyrrolidin-1-yl)-(3-methyl-1H-pyrazolo[3,4-b]pyridin-5-yl)-methanone] | 1 to 10 |
| Cc1n[nH]c2ncc(C(=O)N3CCCC3c3ccc(Br)cc3)cc12 (centres unmarked) [compound 1, [2-(4-Bromo-phenyl)-pyrrolidin-1-yl]-(3-methyl-1H-pyrazolo[3,4-b]pyridin-5-yl)-methanone] | < 0.01 |
| Cc1n[nH]c2ncc(C(=O)N3CCC[C@H]3c3ccc(Br)cc3)cc12 [compound 2, [(S)-2-(4-Bromo-phenyl)-pyrrolidin-1-yl]-(3-methyl-1H-pyrazolo[3,4-b]pyridin-5-yl)-methanone] | < 0.01 |
| Cc1n[nH]c2ncc(C(=O)N3CCC[C@@H]3c3ccc(Br)cc3)cc12 [compound 3, [(R)-2-(4-Bromo-phenyl)-pyrrolidin-1-yl]-(3-methyl-1H-pyrazolo[3,4-b]pyridin-5-yl)-methanone] | 0.1 to 1 |

| SMILES | IC50 [µM] |
| --- | --- |
| CCCc1n[nH]c2ccc(C(=O)N3CCC[C@H]3c3ccc(Br)cc3)cc12 [compound 5, [(S)-2-(4-Bromo-phenyl)-pyrrolidin-1-yl]-(3-propyl-1H-indazol-5-yl)-methanone] | < 0.01 |
| CCCc1n[nH]c2ccc(C(=O)N3CCC[C@@H]3c3ccc(Br)cc3)cc12 [compound 6, [(R)-2-(4-bromo-phenyl)-pyrrolidin-1-yl]-(3-propyl-1H-indazol-5-yl)-methanone] | 0.1 to 1 |
| CCCc1n[nH]c2ccc(C(=O)N3CCCC3c3ccc(Cl)cc3)cc12 (centres unmarked) [compound 9, [2-(4-Chloro-phenyl)-pyrrolidin-1-yl]-(3-propyl-1H-indazol-5-yl)-methanone] | < 0.01 |
| CCCc1n[nH]c2ccc(C(=O)N3CCC[C@H]3c3ccc(Cl)cc3)cc12 [compound 11, [(S)-2-(4-Chloro-phenyl)-pyrrolidin-1-yl]-(3-propyl-1H-indazol-5-yl)-methanone] | < 0.01 |
| CCCc1n[nH]c2ccc(C(=O)N3CCC[C@@H]3c3ccc(Cl)cc3)cc12 [compound 12, [(R)-2-(4-Chloro-phenyl)-pyrrolidin-1-yl]-(3-propyl-1H-indazol-5-yl)-methanone] | 0.1 to 1 |
| Cc1n[nH]c2ncc(C(=O)N3CCCCC3c3ccc(F)cc3)cc12 (centres unmarked) [compound 15, [2-(4-Fluoro-phenyl)-piperidin-1-yl]-(3-methyl-1H-pyrazolo[3,4-b]pyridin-5-yl)-methanone] | 0.01 to 0.1 |
| Cc1n[nH]c2ncc(C(=O)N3CCCC[C@H]3c3ccc(F)cc3)cc12 [compound 17, [(S)-2-(4-Fluoro-phenyl)-piperidin-1-yl]-(3-methyl-1H-pyrazolo[3,4-b]pyridin-5-yl)-methanone] | 0.01 to 0.1 |
| Cc1n[nH]c2ncc(C(=O)N3CCCCC3c3ccccc3)cc12 (centres unmarked) [compound 18, (3-Methyl-1H-pyrazolo[3,4-b]pyridin-5-yl)-(2-phenyl-piperidin-1-yl)-methanone] | 0.01 to 0.1 |
| Cc1n[nH]c2ncc(C(=O)N3CCCCC3Cc3ccccc3)cc12 (centres unmarked) [compound 19, (2-Benzyl-piperidin-1-yl)-(3-methyl-1H-pyrazolo[3,4-b]pyridin-5-yl)-methanone] | 0.1 to 1 |
| Cc1n[nH]c2ncc(C(=O)N3CCCC3c3ccccc3)cc12 (centres unmarked) [compound 20, (3-Methyl-1H-pyrazolo[3,4-b]pyridin-5-yl)-(2-phenyl-pyrrolidin-1-yl)-methanone] | < 0.01 |
| Cc1n[nH]c2ncc(C(=O)N3CCCC3c3cccc(Cl)c3)cc12 (centres unmarked) [compound 21, [2-(3-Chloro-phenyl)-pyrrolidin-1-yl]-(3-methyl-1H-pyrazolo[3,4-b]pyridin-5-yl)-methanone] | 0.01 to 0.1 |
| Cc1n[nH]c2ncc(C(=O)N3CCC(c4ccccc4)C3)cc12 (centres unmarked) [compound 22, (3-Methyl-1H-pyrazolo[3,4-b]pyridin-5-yl)-(3-phenyl-pyrrolidin-1-yl)-methanone] | 0.01 to 0.1 |
| Cc1n[nH]c2ncc(C(=O)N3CCCC3c3ccccc3Cl)cc12 (centres unmarked) [compound 23, [2-(2-Chloro-phenyl)-pyrrolidin-1-yl]-(3-methyl-1H-pyrazolo[3,4-b]pyridin-5-yl)-methanone] | 0.01 to 0.1 |
| Cc1n[nH]c2ncc(C(=O)N3CCCC[C@H]3Cc3ccccc3)cc12 [compound 24, ((S)-2-Benzyl-piperidin-1-yl)-(3-methyl-1H-pyrazolo[3,4-b]pyridin-5-yl)-methanone] | 0.1 to 1 |
| Cc1n[nH]c2ncc(C(=O)N3CCCC3c3ccc(F)cc3)cc12 (centres unmarked) [compound 26, [2-(4-Fluoro-phenyl)-pyrrolidin-1-yl]-(3-methyl-1H-pyrazolo[3,4-b]pyridin-5-yl)-methanone] | < 0.01 |
| Cc1n[nH]c2ncc(C(=O)N3CCCC[C@H]3c3ccccc3)cc12 [compound 28, (3-Methyl-1H-pyrazolo[3,4-b]pyridin-5-yl)-((S)-2-phenyl-piperidin-1-yl)-methanone] | 0.01 to 0.1 |
| Cc1n[nH]c2ncc(C(=O)N3CCCC3c3ccccn3)cc12 (centres unmarked) [compound 30, (3-Methyl-1H-pyrazolo[3,4-b]pyridin-5-yl)-(2-pyridin-2-yl-pyrrolidin-1-yl)-methanone] | 0.1 to 1 |

Same assay, conditions: IC50 [μM], CDK8 co-expressed with CycC; class symbols

| SMILES | IC50 [µM] |
| --- | --- |
| Cc1n[nH]c2ncc(C(=O)N3CCCC3c3ccc(Cl)cc3)cc12 (racemic) [compound 10, [2-(4-Chloro-phenyl)-pyrrolidin-1-yl]-(3-methyl-1H-pyrazolo[3,4-b]pyridin-5-yl)-methanone] | < 0.01 |
| Nc1n[nH]c2ccc(C(=O)N3CCCC3c3ccc(Cl)cc3)cc12 (racemic) [compound 78, (3-Amino-1H-indazol-5-yl)-[2-(4-chloro-phenyl)-pyrrolidin-1-yl]-methanone] | < 0.01 |
| Cc1n[nH]c2ncc(C(=O)N3CCC[C@H]3c3ccc(Cl)cc3)cc12 [compound 13] | < 0.01 |
| Cc1n[nH]c2ncc(C(=O)N3CCC[C@@H]3c3ccc(Cl)cc3)cc12 [compound 14, [(R)-2-(4-Chloro-phenyl)-pyrrolidin-1-yl]-(3-methyl-1H-pyrazolo[3,4-b]pyridin-5-yl)-methanone] | 0.1 to 1 |
